The assay deals with T1, human vasopressin V1b receptor (Homo sapiens, UniProt P47901).
T1 construct: expressed in transfected cells; host or cells: CHO-K1 (cell line hV1b_3H2_CHO), membrane preparation
T1 sequence (P47901 1-424): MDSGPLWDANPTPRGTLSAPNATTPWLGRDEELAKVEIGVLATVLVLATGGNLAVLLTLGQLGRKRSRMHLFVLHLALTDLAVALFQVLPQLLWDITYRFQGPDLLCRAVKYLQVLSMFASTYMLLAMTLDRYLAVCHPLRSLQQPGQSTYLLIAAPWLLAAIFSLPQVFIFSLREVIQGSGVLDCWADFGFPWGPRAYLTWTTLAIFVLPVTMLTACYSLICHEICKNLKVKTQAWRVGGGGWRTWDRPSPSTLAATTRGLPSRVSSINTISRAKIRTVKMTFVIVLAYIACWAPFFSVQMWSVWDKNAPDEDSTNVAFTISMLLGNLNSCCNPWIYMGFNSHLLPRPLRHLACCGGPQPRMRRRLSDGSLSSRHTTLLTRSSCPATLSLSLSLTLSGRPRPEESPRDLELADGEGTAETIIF
Nature of the assay: Vasopressin V1b receptor binding test. The conditions noted are these: membranes of CHO-K1 cells with human V1b receptor, displacement of 1.5 nM 3H-AVP; for compounds with more than one stereogenic center the diastereomer with greater affinity. The procedure: Vasopressin V1b Receptor Binding Test:
The test substances were dissolved at a concentration of 10^−2 M in DMSO, and were further diluted to 5×10^−4 M to 5×10^−9 M in DMSO. This DMSO predilution series was diluted 1:10 with test buffer. In the test assay the substance concentration was further diluted to 1:5 (2% DMSO in the assay).
The membrane pellet was homogenized again as described and centrifuged, and was then taken up in 50 mM tris-HCl at pH 7.4, homogenized, and frozen in aliquots at −190° C. and stored in liquid nitrogen.
The incubation buffer was 50 mM tris, 10 mM MgCl2, and 0.1% BSA at pH 7.4. […] The nonspecific binding was determined using 1 μM AVP (Bachem #H1780). All determinations were performed in triplicate. After incubation (60 minutes at room temperature), the free radioligand was filtered off by vacuum filtration (Skatron 7000 cell harvester) through Wathman GF/B fiberglass filter mats, and the filters were transferred to scintillation vessels. The liquid scintillation measurement was conducted in a Model 2000 or 2200CA TriCarb unit (Packard). The measured cpm was converted to dpm using a standard quench series.
The binding parameters were calculated by nonlinear regression in SAS.
The affinities of the compounds according to the invention for human vasopressin receptor V1b were measured according to the above test, and the affinity constants (Ki) were determined.

By Ki is commonly meant a measure of affinity in units of concentration, obtained from inhibition or displacement. Read a low Ki as higher affinity. Take `COCCN(C)Cc1ccc(C2(N3CCC[C@H]3c3ncco3)C(=O)N(S(=O)(=O)c3ccc(OC)cc3)c3ccc(Cl)cc32)c(OC)c1` (stereo partly drawn) [Example 22, 5-Chloro-1-(4-methoxybenzenesulfonyl)-3-(2-methoxy-4-{[(2-methoxyethyl)methylamino]methyl}phenyl)-3-((S)-2-oxazol-2-yl-pyrrolidin-1-yl)-1,3-dihydroindol-2-one]: the Ki lay within 10 to 100 nM.

On to `COc1ccc(S(=O)(=O)N2C(=O)C(c3ccc(CN4CCN(C)CC4)cc3OC)(N3CCC[C@H]3c3ncco3)c3cc(Cl)ccc32)cc1` (stereo partly drawn) [Example 23, 5-Chloro-1-(4-methoxybenzenesulfonyl)-3-[2-methoxy-4-(4-methylpiperazin-1-ylmethyl)phenyl]-3-((S)-2-oxazol-2-yl-pyrrolidin-1-yl)-1,3-dihydroindol-2-one], for which the Ki is < 10 nM.

Regarding `COc1ccc(S(=O)(=O)N2C(=O)C(c3ccc(CN4CCNCC4)cc3OC)(N3CCC[C@H]3c3ncco3)c3cc(Cl)ccc32)cc1` (stereo partly drawn) [Example 24, 5-Chloro-1-(4-methoxybenzenesulfonyl)-3-(2-methoxy-4-piperazin-1-ylmethylphenyl)-3-((S)-2-oxazol-2-yl-pyrrolidin-1-yl)-1,3-dihydroindol-2-one], the Ki is < 10 nM.

On to `COc1ccc(S(=O)(=O)N2C(=O)C(c3ccc(CN4CCCC4)cc3OC)(N3CCC[C@H]3c3ncco3)c3cc(Cl)ccc32)cc1` (stereo partly drawn) [Example 25, 5-Chloro-1-(4-methoxybenzenesulfonyl)-3-(2-methoxy-4-pyrrolidin-1-ylmethylphenyl)-3-((S)-2-oxazol-2-yl-pyrrolidin-1-yl)-1,3-dihydroindol-2-one], for which the Ki was < 10 nM.

Regarding `COc1ccc(S(=O)(=O)N2C(=O)C(c3ccc(CN4CCCCC4)cc3OC)(N3CCC[C@H]3c3ncco3)c3cc(Cl)ccc32)cc1` (stereo partly drawn) [Example 26, 5-Chloro-1-(4-methoxybenzenesulfonyl)-3-(2-methoxy-4-piperidin-1-ylmethylphenyl)-3-((S)-2-oxazol-2-yl-pyrrolidin-1-yl)-1,3-dihydroindol-2-one], the Ki is < 10 nM.

In the case of `COc1ccc(S(=O)(=O)N2C(=O)C(c3cc(CN(C)C)ccc3OC)(N3CCC[C@H]3c3ncco3)c3ccc(Cl)cc32)cc1` (stereo partly drawn) [Example 28, 6-Chloro-3-(5-dimethylaminomethyl-2-methoxyphenyl)-1-(4-methoxybenzenesulfonyl)-3-((S)-2-oxazol-2-yl-pyrrolidin-1-yl)-1,3-dihydroindol-2-one], the Ki fell in the range of 100 to 1000 nM.

Take `CCN(C)Cc1ccc(OC)c(C2(N3CCC[C@H]3c3ncco3)C(=O)N(S(=O)(=O)c3ccc(OC)cc3)c3cc(Cl)ccc32)c1` (stereo partly drawn) [Example 30, 6-Chloro-3-{5-[(ethylmethylamino)methyl]-2-methoxyphenyl}-1-(4-methoxybenzenesulfonyl)-3-((S)-2-oxazol-2-yl-pyrrolidin-1-yl)-1,3-dihydroindol-2-one]: the Ki was 100 to 1000 nM.

`CCN(CC)Cc1ccc(OC)c(C2(N3CCC[C@H]3c3ncco3)C(=O)N(S(=O)(=O)c3ccc(OC)cc3)c3cc(Cl)ccc32)c1` (stereo partly drawn) [Example 31, 6-Chloro-3-(5-diethylaminomethyl-2-methoxyphenyl)-1-(4-methoxybenzenesulfonyl)-3-((S)-2-oxazol-2-yl-pyrrolidin-1-yl)-1,3-dihydroindol-2-one] returned a Ki of 100 to 1000 nM.

On to `CCCNCc1ccc(OC)c(C2(N3CCC[C@H]3c3ncco3)C(=O)N(S(=O)(=O)c3ccc(OC)cc3)c3cc(Cl)ccc32)c1` (stereo partly drawn) [Example 32, 6-Chloro-1-(4-methoxybenzenesulfonyl)-3-(2-methoxy-5-propylaminomethylphenyl)-3-((S)-2-oxazol-2-yl-pyrrolidin-1-yl)-1,3-dihydroindol-2-one], for which the inhibition constant Ki lay in the range of 100 to 1000 nM.

With `COc1ccc(S(=O)(=O)N2C(=O)C(c3cc(CN(C)C(C)C)ccc3OC)(N3CCC[C@H]3c3ncco3)c3ccc(Cl)cc32)cc1` (stereo partly drawn) [Example 33, 6-Chloro-3-{5-[(isopropylmethylamino)methyl]-2-methoxyphenyl}-1-(4-methoxybenzenesulfonyl)-3-((S)-2-oxazol-2-yl-pyrrolidin-1-yl)-1,3-dihydroindol-2-one], the Ki is 100 to 1000 nM.

As for `COCCN(C)Cc1ccc(OC)c(C2(N3CCC[C@H]3c3ncco3)C(=O)N(S(=O)(=O)c3ccc(OC)cc3)c3cc(Cl)ccc32)c1` (stereo partly drawn) [Example 34, 6-Chloro-1-(4-methoxybenzenesulfonyl)-3-(2-methoxy-5-{[(2-methoxyethyl)methylamino]methyl}phenyl)-3-((S)-2-oxazol-2-yl-pyrrolidin-1-yl)-1,3-dihydroindol-2-one], the Ki was in the range of 100 to 1000 nM.

On to `COc1ccc(S(=O)(=O)N2C(=O)C(c3cc(CN4CCN(C)CC4)ccc3OC)(N3CCC[C@H]3c3ncco3)c3ccc(Cl)cc32)cc1` (stereo partly drawn) [Example 35, 6-Chloro-1-(4-methoxybenzenesulfonyl)-3-[2-methoxy-5-(4-methylpiperazin-1-ylmethyl)phenyl]-3-((S)-2-oxazol-2-yl-pyrrolidin-1-yl)-1,3-dihydroindol-2-one], for which the Ki lay in the range of 100 to 1000 nM.

In turn, `COc1ccc(S(=O)(=O)N2C(=O)C(c3cc(CN4CCOCC4)ccc3OC)(N3CCC[C@H]3c3ncco3)c3ccc(Cl)cc32)cc1` (stereo partly drawn) [Example 37, 6-Chloro-1-(4-methoxybenzenesulfonyl)-3-(2-methoxy-5-morpholin-4-ylmethylphenyl)-3-((S)-2-oxazol-2-yl-pyrrolidin-1-yl)-1,3-dihydroindol-2-one] showed an inhibitory constant (Ki) of 100 to 1000 nM.

On to `COc1ccc(S(=O)(=O)N2C(=O)C(c3cc(CN4CCC4)ccc3OC)(N3CCC[C@H]3c3ncco3)c3ccc(Cl)cc32)cc1` (stereo partly drawn) [Example 38, 3-(5-Azetidin-1-ylmethyl-2-methoxyphenyl)-6-chloro-1-(4-methoxybenzenesulfonyl)-3-((S)-2-oxazol-2-yl-pyrrolidin-1-yl)-1,3-dihydroindol-2-one], for which the Ki lay within 100 to 1000 nM.

Consider `COc1ccc(S(=O)(=O)N2C(=O)C(c3cc(CN4CCCC4)ccc3OC)(N3CCC[C@H]3c3ncco3)c3ccc(Cl)cc32)cc1` (stereo partly drawn) [Example 39, 6-Chloro-1-(4-methoxybenzenesulfonyl)-3-(2-methoxy-5-pyrrolidin-1-ylmethylphenyl)-3-((S)-2-oxazol-2-yl-pyrrolidin-1-yl)-1,3-dihydroindol-2-one], for which the Ki was 100 to 1000 nM.

With `COc1ccc(S(=O)(=O)N2C(=O)C(c3cc(CN4CCCCC4)ccc3OC)(N3CCC[C@H]3c3ncco3)c3ccc(Cl)cc32)cc1` (stereo partly drawn) [Example 40, 6-Chloro-1-(4-methoxybenzenesulfonyl)-3-(2-methoxy-5-piperidin-1-ylmethylphenyl)-3-((S)-2-oxazol-2-yl-pyrrolidin-1-yl)-1,3-dihydroindol-2-one], the Ki is 100 to 1000 nM.

`COc1ccc(S(=O)(=O)N2C(=O)C(c3ccc(CN(C)C)cc3OC)(N3CCC[C@H]3c3ncco3)c3cc(C#N)ccc32)cc1` (stereo partly drawn) [Example 41, 5-Cyano-3-(4-dimethylaminomethyl-2-methoxyphenyl)-1-(4-methoxybenzenesulfonyl)-3-((S)-2-oxazol-2-yl-pyrrolidin-1-yl)-1,3-dihydroindol-2-one] showed a Ki of 10 to 100 nM.

As to `COc1ccc(S(=O)(=O)N2C(=O)C(c3ccc(CN4CCN(C)CC4)cc3OC)(N3CCC[C@H]3c3ncco3)c3cc(C#N)ccc32)cc1` (stereo partly drawn) [Example 42, 5-Cyano-1-(4-methoxybenzenesulfonyl)-3-[2-methoxy-4-(4-methylpiperazin-1-ylmethyl)phenyl]-3-((S)-2-oxazol-2-yl-pyrrolidin-1-yl)-1,3-dihydroindol-2-one], the Ki fell in the range of 10 to 100 nM.

`COc1ccc(S(=O)(=O)N2C(=O)C(c3ccc(CN4CCOCC4)cc3OC)(N3CCC[C@H]3c3ncco3)c3cc(C#N)ccc32)cc1` (stereo partly drawn) [Example 43, 5-Cyano-1-(4-methoxybenzenesulfonyl)-3-(2-methoxy-4-morpholin-4-ylmethylphenyl)-3-((S)-2-oxazol-2-yl-pyrrolidin-1-yl)-1,3-dihydroindol-2-one]: the Ki fell in the range of 100 to 1000 nM.

`CNCc1ccc(OC)c(C2(N3CCC[C@H]3c3ncco3)C(=O)N(S(=O)(=O)c3ccc(OC)cc3)c3ccc(C#N)cc32)c1` (stereo partly drawn) [Example 45, 5-Cyano-1-(4-methoxybenzenesulfonyl)-3-(2-methoxy-5-methylaminomethylphenyl)-3-((S)-2-oxazol-2-yl-pyrrolidin-1-yl)-1,3-dihydroindol-2-one]: the Ki is < 10 nM.

Regarding `COc1ccc(S(=O)(=O)N2C(=O)C(c3cc(CN(C)C)ccc3OC)(N3CCC[C@H]3c3ncco3)c3cc(C#N)ccc32)cc1` (stereo partly drawn) [Example 46, 5-Cyano-3-(5-dimethylaminomethyl-2-methoxyphenyl)-1-(4-methoxybenzenesulfonyl)-3-((S)-2-oxazol-2-yl-pyrrolidin-1-yl)-1,3-dihydroindol-2-one], the Ki is 10 to 100 nM.

The record behind these values is US8044079B2, “Substituted oxindole derivatives, medicaments containing said derivatives and use thereof” (Abbott GmbH & Co. KG, priority 2005, dated 2011).
